Assay results taken from patent US20110294772A1, “USE OF CYCLOSQUARAMIDE COMPOUNDS AS ANTI-TUMOUR AGENTS” (priority 2008, published 2011).

Tests used:
[1] = system: panel of 210 kinases representative of the human kinome; assay: in vitro kinase panel; assay type: biochemical; details: 25 kinases selected for IC50, in vitro assays
Protocol: Specifically, against a panel of 210 kinases representative of the human kinome, the compounds tested inhibited by […] the activity of 25 of them in in Vitro assays (Table 1).
The IC50 was determined for the most sensitive kinases to compound 10, obtaining values for said parameter, largely in the micromolar range. For this purpose, the 25 kinases inhibited more than 80% by the compound in in vitro assays were selected.

U87 = assay: cell viability assay; assay type: cell-based, human; details: U87 glioblastoma, 72 h, with respect to untreated control cells
U251 = assay: cell viability assay; assay type: cell-based, human; details: U251 glioblastoma, 72 h, with respect to untreated control cells
Hut = assay: cell viability assay; assay type: cell-based, human; details: Hut T-cell lymphoma, 72 h, with respect to untreated control cells
Karpas-45 = assay: cell viability assay; assay type: cell-based, human; details: Karpas-45 T-cell lymphoma, 72 h, with respect to untreated control cells
Jeko-1 = assay: cell viability assay; assay type: cell-based, human
Protocol: The IC50 in cell viability assays were determined for some of the macrocycles prepared in Jeko-1 (B-cell lymphoma (MCL) type cells. With a total incubation period of 48 h.

JVM-2 = assay: cell viability assay; assay type: cell-based, human; details: JVM-2 B-cell lymphoma (MCL), 48 h, with respect to untreated control cells
Rec-1 = assay: cell viability assay; assay type: cell-based, human; details: Rec-1 B-cell lymphoma (MCL), 48 h, with respect to untreated control cells
[2] = system: panel of NCl60 cell lines; assay: IC50 in NCI60 panel (overall); assay type: cell-based; details: Homo sapiens, general order, read-out: antitumor activity (IC50) in general
Protocol: (§1) On the other hand, the values of IC50 were determined in the panel of NCl60 cell lines for compound 10.
(§2) A total of 2 independent experiments were carried out with assays in triplicate for the compound and cell line. All those assays where an IC50 value was not reached in the highest concentration of 1E-05 M are represented by “>1E-05”. In these cases, the standard deviation cannot be calculated and for that reason it is calculated as “-”.

HCT-15 (Colon) = assay: NCI60 panel IC50; assay type: cell-based, human
Protocol: as §1, §2

HT-29 (Colon) = assay: NCI60 panel IC50; assay type: cell-based, human
Protocol: as §1, §2

OVCAR-4 (Ovarian) = assay: NCI60 panel IC50; assay type: cell-based, human
Protocol: as §1, §2

inhibition of the 25 most sensitive kinases [1]: more than 80%
Compound: CN1CCCNc2c(c(=O)c2=O)NCCCN(C)CCCNc2c(c(=O)c2=O)NCCCN(C)CCCNc2c(c(=O)c2=O)NCCCN(C)CCCNc2c(c(=O)c2=O)NCCCN(C)CCCNc2c(c(=O)c2=O)NCCC1 [Compound 10]
% Cell viability (U87): 25% | % Cell viability (U251): 85% | % Cell viability (Hut): 60% | % Cell viability (Karpas-45): 13% | IC50 (Jeko-1; Homo sapiens, JeKo-1, 48 h, cell viability, total incubation period 48 h, read-out: IC50 (μM) against Jeko-1 cells): 30.7 µM | % Cell viability (Jeko-1; Jeko-1 B-cell lymphoma (MCL), 48 h, with respect to untreated control cells): 46% | % Cell viability (JVM-2): 24% | % Cell viability (Rec-1): 44% | IC50 [2]: 1 to 10 µM | IC50 (HCT-15 (Colon); Homo sapiens, HCT-15 (Colon), NCI60 panel, highest concentration 1E-05 M): > 10 µM | sensitivity of the line to the tested compound (HCT-15 (Colon); colon HCTI5): resistant | IC50 (HT-29 (Colon); Homo sapiens, HT-29 (Colon), NCI60 panel, highest concentration 1E-05 M): > 10 µM | sensitivity of the line to the tested compound (HT-29 (Colon); colon HT-29): resistant | IC50 (OVCAR-4 (Ovarian); Homo sapiens, OVCAR-4 (Ovarian), NCI60 panel, highest concentration 1E-05 M): > 10 µM | sensitivity of the line to the tested compound (OVCAR-4 (Ovarian); ovarian OVCAR-4): resistant
